Experimental data taken from ChEMBL document CHEMBL4373707 (J Med Chem, 2019).

What was measured:
[1] = Inhibition of integrin alphavbeta8 (unknown origin) by radioligand binding assay; parameters: species or system Homo sapiens
[2] = Stability in cryopreserved Wistar-Han rat hepatocytes assessed as compound turnover rate at 0.5 uM measured up to 60 mins by LC-MS/MS analysis; type: ADME, cell-based, Hepatocyte; details: 1 h
[3] = Stability in cryopreserved human hepatocytes at 0.5 uM measured up to 60 mins by LC-MS/MS analysis; type: ADME, cell-based, Hepatocyte; details: 1 h
[4] = Blood clearance in dual cannulated Wistar-Han rat at 1 mg/kg, iv administered as infusion for 30 mins and measured up to 24 hrs by LC-MS/MS analysis; type: ADME, organism-based; details: whole blood
[5] = Unbound blood clearance in dual cannulated Wistar-Han rat at 1 mg/kg, iv administered as infusion for 30 mins and measured up to 24 hrs by LC-MS/MS analysis; type: ADME, organism-based; details: in vivo
[6] = Volume of distribution in dual cannulated Wistar-Han rat at 1 mg/kg, iv administered as infusion for 30 mins and measured up to 24 hrs by LC-MS/MS analysis; type: ADME, organism-based; details: in vivo
[7] = buffer
Description: (§1) Aqueous kinetic solubility of the compund by CLND method

[8] = physchem; details: buffer, pH 7.4
Description: Lipophilicity, logD of the compound at pH 7.4 by chromatographic method

[9] = target: Integrin alpha-V/beta-1 (Homo sapiens, UniProt P05556+P06756)
Chain of Integrin alpha-V/beta-1 (P05556 21-798 limits assumed): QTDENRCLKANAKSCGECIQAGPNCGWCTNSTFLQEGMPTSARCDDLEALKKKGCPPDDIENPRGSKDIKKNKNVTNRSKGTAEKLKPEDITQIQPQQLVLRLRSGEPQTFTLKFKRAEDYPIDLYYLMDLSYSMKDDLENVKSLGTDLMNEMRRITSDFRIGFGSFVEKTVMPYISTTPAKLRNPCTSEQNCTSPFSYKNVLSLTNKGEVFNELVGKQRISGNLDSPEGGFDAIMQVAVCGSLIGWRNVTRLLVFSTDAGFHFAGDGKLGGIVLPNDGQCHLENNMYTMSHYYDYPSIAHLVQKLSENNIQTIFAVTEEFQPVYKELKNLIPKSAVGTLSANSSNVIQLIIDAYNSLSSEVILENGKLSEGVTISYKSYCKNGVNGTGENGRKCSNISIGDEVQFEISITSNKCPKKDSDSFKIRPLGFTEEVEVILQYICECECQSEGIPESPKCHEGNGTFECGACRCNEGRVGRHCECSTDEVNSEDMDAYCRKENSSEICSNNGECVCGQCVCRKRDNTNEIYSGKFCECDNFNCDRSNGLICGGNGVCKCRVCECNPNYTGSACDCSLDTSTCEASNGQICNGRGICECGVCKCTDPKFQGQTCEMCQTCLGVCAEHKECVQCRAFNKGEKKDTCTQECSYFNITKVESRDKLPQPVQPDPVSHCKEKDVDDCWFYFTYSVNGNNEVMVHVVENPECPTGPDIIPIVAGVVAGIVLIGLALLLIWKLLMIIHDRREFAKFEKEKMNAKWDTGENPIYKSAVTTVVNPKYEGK
Chain of Integrin alpha-V/beta-1 (P06756 31-889 limits assumed): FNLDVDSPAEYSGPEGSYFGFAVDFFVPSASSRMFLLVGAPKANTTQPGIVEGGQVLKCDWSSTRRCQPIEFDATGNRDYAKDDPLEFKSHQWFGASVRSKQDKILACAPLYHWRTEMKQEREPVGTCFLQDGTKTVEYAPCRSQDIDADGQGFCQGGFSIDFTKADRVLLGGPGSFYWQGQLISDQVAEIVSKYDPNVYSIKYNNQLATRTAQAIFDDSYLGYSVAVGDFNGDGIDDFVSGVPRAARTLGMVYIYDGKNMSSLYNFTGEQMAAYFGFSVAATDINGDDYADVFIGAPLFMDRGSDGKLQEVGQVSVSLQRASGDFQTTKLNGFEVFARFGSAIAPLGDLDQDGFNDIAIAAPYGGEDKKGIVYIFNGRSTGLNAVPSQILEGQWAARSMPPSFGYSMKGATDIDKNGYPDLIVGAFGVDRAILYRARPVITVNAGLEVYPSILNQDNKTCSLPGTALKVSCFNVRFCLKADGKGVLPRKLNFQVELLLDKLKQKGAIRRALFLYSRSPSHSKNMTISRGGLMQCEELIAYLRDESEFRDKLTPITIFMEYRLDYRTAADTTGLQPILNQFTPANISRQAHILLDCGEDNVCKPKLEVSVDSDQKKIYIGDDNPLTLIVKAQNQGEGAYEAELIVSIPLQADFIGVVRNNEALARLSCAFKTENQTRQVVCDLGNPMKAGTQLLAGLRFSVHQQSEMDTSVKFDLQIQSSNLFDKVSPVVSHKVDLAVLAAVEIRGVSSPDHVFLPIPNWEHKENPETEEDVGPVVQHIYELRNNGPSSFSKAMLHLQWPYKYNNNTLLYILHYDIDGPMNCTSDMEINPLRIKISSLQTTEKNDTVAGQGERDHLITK
Chain of Integrin alpha-V/beta-1 (P06756 891-1048 limits assumed): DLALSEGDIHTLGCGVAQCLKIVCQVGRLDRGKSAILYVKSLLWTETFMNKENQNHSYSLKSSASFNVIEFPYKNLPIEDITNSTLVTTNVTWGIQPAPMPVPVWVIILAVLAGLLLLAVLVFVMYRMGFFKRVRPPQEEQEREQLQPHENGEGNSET
Description: Inhibition of integrin alphavbeta1 (unknown origin) expressed in human A549 cells assessed as reduction in cell adhesion to GST-LAP1 (242 to 252 amino acids) incubated for 30 mins by fluorescent probe BCECF-AM based fluorescence assay

[10] = target: Integrin alpha-V/beta-3 (Homo sapiens, UniProt P05106+P06756)
Description: Inhibition of integrin alphavbeta3 (unknown origin) expressed in human K562 cells assessed as reduction in cell adhesion to GST-LAP1 (242 to 252 amino acids) incubated for 30 mins by fluorescent probe BCECF-AM based fluorescence assay

[11] = target: Integrin alpha-V/beta-5 (Homo sapiens, UniProt P06756+P18084)
Chain of Integrin alpha-V/beta-5 (P06756 31-889 limits assumed): as the sequence (P06756 31-889 limits assumed) above
Chain of Integrin alpha-V/beta-5 (P06756 891-1048 limits assumed): as the sequence (P06756 891-1048 limits assumed) above
Chain of Integrin alpha-V/beta-5 (P18084 24-799 limits assumed): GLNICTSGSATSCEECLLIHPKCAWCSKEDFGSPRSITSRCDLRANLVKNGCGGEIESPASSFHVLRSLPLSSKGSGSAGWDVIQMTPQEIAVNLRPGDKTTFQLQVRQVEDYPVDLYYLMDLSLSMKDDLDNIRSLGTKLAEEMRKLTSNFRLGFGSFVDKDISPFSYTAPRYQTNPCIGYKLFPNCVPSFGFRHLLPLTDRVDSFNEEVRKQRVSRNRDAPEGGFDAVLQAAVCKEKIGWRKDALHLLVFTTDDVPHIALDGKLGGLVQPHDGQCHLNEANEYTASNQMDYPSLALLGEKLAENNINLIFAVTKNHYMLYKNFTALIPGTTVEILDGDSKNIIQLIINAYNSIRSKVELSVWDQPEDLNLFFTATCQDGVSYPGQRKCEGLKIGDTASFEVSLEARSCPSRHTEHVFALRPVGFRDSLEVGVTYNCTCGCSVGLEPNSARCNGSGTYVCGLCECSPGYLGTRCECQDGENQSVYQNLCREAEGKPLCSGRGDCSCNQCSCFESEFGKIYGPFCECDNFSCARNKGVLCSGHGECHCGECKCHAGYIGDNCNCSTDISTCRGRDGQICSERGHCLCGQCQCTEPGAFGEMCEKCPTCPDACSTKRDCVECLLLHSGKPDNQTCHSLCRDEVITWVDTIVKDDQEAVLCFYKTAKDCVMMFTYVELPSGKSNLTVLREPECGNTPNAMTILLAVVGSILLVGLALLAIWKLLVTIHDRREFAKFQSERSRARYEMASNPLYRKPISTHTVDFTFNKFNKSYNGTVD
Description: Inhibition of integrin alphavbeta5 (unknown origin) expressed in human K562 cells assessed as reduction in cell adhesion to human vitronectin incubated for 30 mins by fluorescent probe BCECF-AM based fluorescence assay

[12] = target: Integrin alpha-V/beta-8 (Homo sapiens, UniProt P06756+P26012)
Chain of Integrin alpha-V/beta-8 (P06756 31-889 limits assumed): as the sequence (P06756 31-889 limits assumed) above
Chain of Integrin alpha-V/beta-8 (P06756 891-1048 limits assumed): as the sequence (P06756 891-1048 limits assumed) above
Chain of Integrin alpha-V/beta-8 (P26012 43-769 limits assumed): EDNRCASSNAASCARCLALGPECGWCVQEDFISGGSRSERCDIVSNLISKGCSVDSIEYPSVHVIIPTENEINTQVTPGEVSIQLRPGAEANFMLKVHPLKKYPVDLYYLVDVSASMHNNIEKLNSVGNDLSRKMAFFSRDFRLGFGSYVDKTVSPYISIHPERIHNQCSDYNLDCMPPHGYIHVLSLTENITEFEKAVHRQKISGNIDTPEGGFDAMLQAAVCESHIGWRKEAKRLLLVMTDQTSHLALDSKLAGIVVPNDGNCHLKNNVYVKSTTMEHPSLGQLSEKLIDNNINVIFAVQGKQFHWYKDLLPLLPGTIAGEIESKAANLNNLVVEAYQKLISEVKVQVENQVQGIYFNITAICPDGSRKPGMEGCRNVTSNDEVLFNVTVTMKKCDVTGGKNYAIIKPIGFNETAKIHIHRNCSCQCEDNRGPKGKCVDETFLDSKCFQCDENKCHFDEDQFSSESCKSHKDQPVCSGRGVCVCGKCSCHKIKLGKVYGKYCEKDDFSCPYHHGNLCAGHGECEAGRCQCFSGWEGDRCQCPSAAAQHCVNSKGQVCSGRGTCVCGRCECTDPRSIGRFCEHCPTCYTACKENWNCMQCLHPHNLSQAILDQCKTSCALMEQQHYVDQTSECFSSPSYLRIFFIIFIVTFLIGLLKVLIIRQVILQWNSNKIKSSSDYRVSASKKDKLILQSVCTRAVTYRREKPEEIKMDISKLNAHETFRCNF
Description: Inhibition of integrin alphavbeta8 (unknown origin) expressed in human K562 cells assessed as reduction in cell adhesion to GST-LAP1 (242 to 252 amino acids) incubated for 30 mins by fluorescent probe BCECF-AM based fluorescence assay

[13] = target: T1, Integrin alpha-V/beta-6 (Homo sapiens, UniProt P06756+P18564)
T1 sequence (P06756 31-889 limits assumed): as the sequence (P06756 31-889 limits assumed) above
T1 sequence (P06756 891-1048 limits assumed): as the sequence (P06756 891-1048 limits assumed) above
T1 sequence (P18564 22-788 limits assumed): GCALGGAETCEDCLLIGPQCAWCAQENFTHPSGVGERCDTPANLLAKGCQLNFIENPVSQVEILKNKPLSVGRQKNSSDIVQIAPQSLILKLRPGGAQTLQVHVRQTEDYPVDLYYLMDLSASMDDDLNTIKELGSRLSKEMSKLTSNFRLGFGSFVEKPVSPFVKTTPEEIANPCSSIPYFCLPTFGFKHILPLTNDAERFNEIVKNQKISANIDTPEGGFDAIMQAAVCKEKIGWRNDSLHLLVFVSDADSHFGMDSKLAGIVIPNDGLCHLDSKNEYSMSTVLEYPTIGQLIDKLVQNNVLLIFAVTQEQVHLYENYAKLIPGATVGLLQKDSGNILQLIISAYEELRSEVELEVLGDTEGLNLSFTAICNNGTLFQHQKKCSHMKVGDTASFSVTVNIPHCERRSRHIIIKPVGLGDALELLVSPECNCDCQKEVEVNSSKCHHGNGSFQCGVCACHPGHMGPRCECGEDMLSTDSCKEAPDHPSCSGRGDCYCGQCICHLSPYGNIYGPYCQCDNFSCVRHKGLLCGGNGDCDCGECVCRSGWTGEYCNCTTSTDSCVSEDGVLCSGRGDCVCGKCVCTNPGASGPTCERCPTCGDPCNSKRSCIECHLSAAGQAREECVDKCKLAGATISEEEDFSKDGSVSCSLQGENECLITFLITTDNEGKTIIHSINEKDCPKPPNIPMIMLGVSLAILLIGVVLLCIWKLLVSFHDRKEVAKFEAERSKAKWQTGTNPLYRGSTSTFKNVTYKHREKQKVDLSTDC
Description: Inhibition of integrin alphavbeta6 (unknown origin) expressed in human K562 cells assessed as reduction in cell adhesion to GST-LAP1 (242 to 252 amino acids) incubated for 30 mins by fluorescent probe BCECF-AM based fluorescence assay

[14] = target: T1, Integrin alpha-V/beta-6; assay: Inhibition of integrin alphavbeta6 (unknown origin) by radioligand binding assay; type: protein-complex assay
[15] = species: Homo sapiens; assay: Selectivity ratio of IC50 for integrin alphavbeta1 (unknown origin) expressed in human A549 cells to IC50 for integrin alphavbeta6 (unknown origin) expressed in human K562 cells; type: cell-based
[16] = species: Homo sapiens; assay: Selectivity ratio of IC50 for integrin alphavbeta3 (unknown origin) expressed in human K562 cells to IC50 for integrin alphavbeta6 (unknown origin) expressed in human K562 cells; type: cell-based
[17] = species: Homo sapiens; assay: Selectivity ratio of IC50 for integrin alphavbeta5 (unknown origin) expressed in human K562 cells to IC50 for integrin alphavbeta6 (unknown origin) expressed in human K562 cells; type: cell-based
[18] = species: Homo sapiens; assay: Selectivity ratio of IC50 for integrin alphavbeta8 (unknown origin) expressed in human K562 cells to IC50 for integrin alphavbeta6 (unknown origin) expressed in human K562 cells; type: cell-based
[19] = target: Voltage-gated inwardly rectifying potassium channel KCNH2 (Homo sapiens, UniProt Q12809); assay: Inhibition of human ERG expressed in CHO-K1 cells at -80 mV holding potential by IonWorks barracuda automated electrophysiology method; type: cell-based
[20] = Protein binding in rat blood assessed as unbound fraction at 1 ug/ml incubated for 4 hrs by LC-MS/MS-based rapid equilibrium dialysis method; type: ADME, tissue-based; details: at 1 µg/mL
[21] = Protein binding in human blood assessed as fraction unbound at 1 ug/ml incubated for 4 hrs by LC-MS/MS-based rapid equilibrium dialysis method; type: ADME, tissue-based; details: at 1 µg/mL
[22] = Protein binding in human lung homogenates assessed as fraction unbound at 1 ug/ml incubated for 4 hrs by LC-MS/MS-based rapid equilibrium dialysis method; type: ADME, tissue-based; details: at 1 µg/mL
[23] = Drug metabolism assessed as unmethylated (3S)-3-[3-(3,5-dimethylpyrazol-1-yl)phenyl]-4-[(3R)-3-[2-(5,6,7,8-tetrahydro-1,8-naphthyridin-2-yl)ethyl]pyrrolidin-1-yl]butanoic acid hydrochloride formation
[24] = Blood clearance in dual cannulated Wistar-Han rat at 1 mg/kg, iv administered as infusion for 60 mins and measured up to 7 hrs by LC-MS/MS analysis; type: ADME, organism-based; details: whole blood
[25] = Unbound blood clearance in dual cannulated Wistar-Han rat at 1 mg/kg, iv administered as infusion for 60 mins and measured up to 7 hrs by LC-MS/MS analysis; type: ADME, organism-based; details: in vivo
[26] = Volume of distribution in dual cannulated Wistar-Han rat at 1 mg/kg, iv administered as infusion for 60 mins and measured up to 7 hrs by LC-MS/MS analysis; type: ADME, organism-based; details: in vivo
[27] = Half-life in dual cannulated Wistar-Han rat at 1 mg/kg, iv administered as infusion for 60 mins and measured up to 7 hrs by LC-MS/MS analysis; type: ADME, organism-based; details: in vivo
[28] = in vitro; details: not told
Description: Permeability of the compound

[29] = physchem; details: buffer
Description: as §1

[30] = Inhibition of human LAP binding to human integrin alphavbeta8 after 2 hrs

Kinetic_solubility [7]	chromatographic logD [8]	IC50 [9] [nM]	IC50 [10] [nM]	IC50 [11] [nM]	IC50 [12] [nM]	IC50 [13] [nM]	SMILES	also measured
–	–	–	–	–	–	–	Cc1cc(C)n(-c2cccc([C@H](CC(=O)O)CN3CC[C@@H](CCc4ccc5c(n4)NCCC5)C3)c2)n1.Cl [GSK-3008348]	pKi [1]: 8.7; Drug metabolism [2]: 9.45 mL/min/g; Stability [3]: < 0.86 mL/min/g; clearance [4]: 56 mL/min/kg; CL free [5]: 150 mL/min/kg; Vd [6]: 2.1 L/kg
Soluble	2.3	–	–	–	–	–	O=C(O)C[C@H](CN1CC[C@@H](CCc2ccc3c(n2)NCCC3)C1)c1cccc(N2CCOCC2)c1	–
Soluble	1.9	3980	3980	79.4	200	12.6	C[N+]1(C[C@@H](CC(=O)[O-])c2cccc(O[C@@H]3CCOC3)c2)CC[C@@H](CCc2ccc3c(n2)NCCC3)C1 (mixture of isomers)	–
Soluble	1.8	794	5010	251	126	12.6	C[N+]1(C[C@@H](CC(=O)[O-])c2cccc(N3CCOCC3)c2)CC[C@@H](CCc2ccc3c(n2)NCCC3)C1 (mixture of isomers)	–
–	2.5	631	6310	501	79.4	3.16	Cc1cc(C)n(-c2cccc([C@H](CC(=O)[O-])C[N@@+]3(C)CC[C@@H](CCc4ccc5c(n4)NCCC5)C3)c2)n1	Ki [14]: 0.107 nM; Ratio IC50 [15]: 10 to 1000; Ratio IC50 [16]: 10 to 1000; Ratio IC50 [17]: 10 to 1000; Ratio IC50 [18]: 10 to 1000; IC50 [19]: > 50100 nM; Drug metabolism [2]: 1.22 mL/min/g; Stability [3]: < 0.45 mL/min/g; fraction unbound at 4 h, 1 ug/ml [20]: 0.583; fraction unbound at 4 h, 1 ug/ml [21]: 0.503; fraction unbound at 4 h, 1 ug/ml [22]: 0.097; Drug metabolism [23]: Metabolite not detected; clearance [24]: 87.6 mL/min/kg; CL free [25]: 190 mL/min/kg; Vd [26]: 1.1 L/kg; half-life [27]: 13.2 min; Papp [28]: < 0.8 ×10⁻⁶ cm/s; solubility kinetic [29]: > 1000 µg/mL
Soluble	2.1	1580	6310	631	100	–	Cc1ccnn1-c1cccc([C@H](CC(=O)[O-])C[N+]2(C)CC[C@@H](CCc3ccc4c(n3)NCCC4)C2)c1 (mixture of isomers)	–
Soluble	2.8	5010	–	> 10000	1260	39.8	CC[N@+]1(C[C@@H](CC(=O)[O-])c2cccc(-n3nc(C)cc3C)c2)CC[C@@H](CCc2ccc3c(n2)NCCC3)C1	–
Soluble	2.4	2000	> 10000	1000	63.1	3.16	Cc1cc(C)n(-c2cccc([C@H](CC(=O)[O-])C[N@+]3(C)CC[C@@H](CCc4ccc5c(n4)NCCC5)C3)c2)n1	Ki [14]: 0.174 nM; Ratio IC50 [15]: 10 to 1000; Ratio IC50 [16]: 10 to 1000; Ratio IC50 [17]: 10 to 1000; Ratio IC50 [18]: 10 to 1000
–	–	–	–	–	–	–	CC(C)(C)c1cc(Br)cc([C@H](CC(=O)O)NC(=O)CNC(=O)c2cc(O)cc(NC3=NCC(O)CN3)c2)c1 (stereo partly specified)	IC50 [30]: 0.2 nM
